Experimental findings from ChEMBL document CHEMBL1201862, “PubChem BioAssay data set” (2004) are described below.

Molecules are shown by their SMILES.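 Method: 48-hour compound exposure of cells in 96-well plates, five concentrations, linear interpolation of endpoints. GI50 is the concentration that inhibits growth by half.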 Activity calls are given as the source filed them. No stated cut-off is given here; in the data, active = GI50 up to about 1.1 µM and inactive = higher.

Test in all cases: NCI tumour cell line growth inhibition, 48 h
Assay [1] concerns EKVX.
Assay [2] relates to CCRF-CEM.
Assay [3] relates to M14.
The test system of assay [4] is A549.
For assay [5], the system named is MCF7.
Assay [6] deals with NCI-H460.
Assay [7] deals with MOLT-4.
In assay [8] the test system is CAKI-1.
Assay [9] concerns UACC-257.
Assay [10] relates to SW-620.
For assay [11], the system named is SK-OV-3.
For assay [12], the system named is COLO 205.
The subject of assay [13] is NCI/ADR-RES.
For assay [14], the system named is T47D.
Assay [15] deals with PC-3.
The test system of assay [16] is IGROV-1.
Assay [17] deals with A498.
For assay [18], the system named is MDA-MB-231.

On to `CN1C(C)(C)CC(=O)C(Br)C1(C)C` (configuration not stated), for which the GI50 in assay [1], in assay [2], in assay [3], in assay [4], in assay [5] and in [6] was > 100 µM (inactive) in each case. Also, the GI50 in assay [7], in [8], in assay [9], in [10], in assay [11] and in [12] was > 100 µM (inactive) each time. Besides, the GI50 in assay [13], in assay [14], in [15] and in assay [16] was > 100 µM (inactive) in each case.
On to `NC12Oc3cc(O)cc(O)c3C1(c1ccc(Cl)cc1)c1c(O)cc(O)cc1O2` (configuration not stated), for which the GI50 in assay [1] was 71.8 µM (inactive); in assay [2], 37.7 µM (inactive); in [3], > 100 µM (inactive); in assay [4], > 100 µM (inactive); in assay [5], 59.8 µM (inactive); in assay [6], 34.6 µM (inactive). In addition, the GI50 was 27.9 µM (inactive) in [7]; > 100 µM (inactive) in assay [8]; 79.1 µM (inactive) in assay [9]; > 100 µM (inactive) in assay [10]; > 100 µM (inactive) in assay [11]; 97.5 µM (inactive) in assay [12]. Further, the GI50 was > 100 µM (inactive) in assay [13]; > 100 µM (inactive) in [17]; > 100 µM (inactive) in assay [14]; 43 µM (inactive) in assay [15]; 41.7 µM (inactive) in assay [16].
Regarding `CCOC(=O)/C=C/c1nc(C#N)c(N)o1`, the GI50 in [1], in assay [2], in [3], in assay [4], in assay [5] and in assay [7] was > 100 µM (inactive) in each case. The GI50 in assay [8], in assay [9], in assay [10], in assay [11], in [18] and in assay [17] was > 100 µM (inactive) throughout. Also, the GI50 in assay [15] and in [16] was > 100 µM (inactive) throughout.
Regarding `COc1ccc(C2C=C(c3ccc(C)cc3)N(c3ccc(OC)cc3[N+](=O)[O-])C3C(=O)OC(=O)C23)c(OC)c1` (configuration not stated), the GI50 was 28.2 µM (inactive) in assay [1]; 35.1 µM (inactive) in [2]; 34.3 µM (inactive) in assay [3]; 37 µM (inactive) in assay [4]; 42.5 µM (inactive) in assay [5]; 71.3 µM (inactive) in assay [6]. Besides, the GI50 in [7] was 32.6 µM (inactive); in assay [8], 37.3 µM (inactive); in assay [9], 77.6 µM (inactive); in assay [10] it was 28.6 µM (inactive); in assay [11], 25 µM (inactive); in assay [12] it was 43.1 µM (inactive). In addition, the GI50 in assay [18] is 53.2 µM (inactive); in assay [17], 67 µM (inactive); in [15] it was 42.4 µM (inactive); in [16], 15.2 µM (inactive).
As for `Cc1cc(C)n(C(=O)C(C)Sc2nnc(SC(C)C(=O)n3nc(C)cc3C)s2)n1` (configuration not stated), the GI50 in assay [1], in [2], in [3], in [4], in assay [5] and in assay [6] was > 100 µM (inactive) throughout. In addition, the GI50 in assay [7], in assay [8], in [9], in assay [10], in [11] and in assay [12] was > 100 µM (inactive) each time. Also, the GI50 in assay [18], in assay [13], in assay [17], in assay [15] and in [16] was > 100 µM (inactive) in each case.
On to `C=C1C(=O)O[C@@]23C1CC[C@@H](C)C2CC[C@@]1(C)OC31` (some centres not stated), for which the GI50 in [1] was 12.5 µM (inactive); in assay [2], 3.42 µM (inactive); in assay [3], 3.52 µM (inactive); in assay [4], 21.2 µM (inactive); in assay [5], 5.96 µM (inactive); in assay [6] it was 16.4 µM (inactive). Also, the GI50 in assay [7] is 3.61 µM (inactive); in [8], 5.75 µM (inactive); in assay [9] it was 6.75 µM (inactive); in [10], 8.81 µM (inactive); in assay [11] it was 16 µM (inactive); in assay [12] it was 1.86 µM (inactive). Moreover, the GI50 in assay [13] was 16.8 µM (inactive); in [17], 18.2 µM (inactive); in assay [14], 4.03 µM (inactive); in assay [15] it was 5.05 µM (inactive); in assay [16] it was 11.7 µM (inactive).
For the compound `C=C1C(=O)O[C@H]2C1C[C@H](O)[C@@]1(C)OC1CC[C@@]1(C)O[C@H]21` (some centres not stated), the GI50 in assay [1] is 18.2 µM (inactive); in assay [2], 2.61 µM (inactive); in [3], 15.5 µM (inactive); in assay [4] it was > 100 µM (inactive); in assay [5], 15.4 µM (inactive); in [6], > 100 µM (inactive). In addition, the GI50 in assay [7] was 10.1 µM (inactive); in assay [8] it was 17.7 µM (inactive); in assay [9] it was 18.1 µM (inactive); in [10] it was 13.6 µM (inactive); in assay [11], 61.8 µM (inactive); in [12], 4.88 µM (inactive). Further, the GI50 in assay [13] was 20.9 µM (inactive); in assay [14], 19.3 µM (inactive); in assay [15] it was 17.8 µM (inactive); in assay [16], 14.9 µM (inactive).
With `N#C/C(=C\c1cc(F)cc(F)c1)c1ccccn1`, the GI50 in assay [1] is 13 µM (inactive); in [2], 18.1 µM (inactive); in assay [3] it was 25.8 µM (inactive); in assay [4], 28.6 µM (inactive); in assay [5] it was 26.9 µM (inactive); in assay [6], 22.7 µM (inactive). In addition, the GI50 in [7] is 13.7 µM (inactive); in assay [8], 39.5 µM (inactive); in assay [9] it was 32.1 µM (inactive); in assay [10] it was > 10 µM (inactive); in [11], 61.8 µM (inactive); in assay [12], > 10 µM (inactive). For the same compound, the GI50 is 23.6 µM (inactive) in assay [13], 24.3 µM (inactive) in assay [15] and 54.8 µM (inactive) in assay [16].
As to `NS(=O)(=O)c1ccc(-n2c(-c3cccs3)nc3ccc(I)cc3c2=O)cc1`, the GI50 in assay [1] is 25.1 µM (inactive); in [3] it was 23.7 µM (inactive); in [4], 18.7 µM (inactive); in assay [5], 23.3 µM (inactive); in assay [6], 25.5 µM (inactive); in assay [7], 52.8 µM (inactive). Further, the GI50 was 19.4 µM (inactive) in assay [8]; 0.0522 µM (active) in assay [9]; 37.9 µM (inactive) in assay [10]; 22.6 µM (inactive) in [11]; 19.7 µM (inactive) in assay [12]; 29.1 µM (inactive) in assay [13]. The GI50 in assay [15] is 26.6 µM (inactive); in assay [16], 21.7 µM (inactive).
